{"source": "paper PMC11233931", "about": "“Remodeling tumor‐associated macrophage for anti‐cancer effects by rational design of irreversible inhibition of mitogen‐activated protein kinase‐activated protein kinase 2” (MedComm, 2024)", "experiment_in_all_cases": "Eurofins kinase selectivity profile against 380 other human recombinant kinases (Table S2)", "format_in_all_cases": "biochemical", "key": {"[1]": {"target": "T1, 380 human recombinant protein kinases (Homo sapiens, UniProt Q12866)", "T1 construct": "purchased Eurofins (Celle Lévescault)", "T1 sequence (Q12866 21-999)": "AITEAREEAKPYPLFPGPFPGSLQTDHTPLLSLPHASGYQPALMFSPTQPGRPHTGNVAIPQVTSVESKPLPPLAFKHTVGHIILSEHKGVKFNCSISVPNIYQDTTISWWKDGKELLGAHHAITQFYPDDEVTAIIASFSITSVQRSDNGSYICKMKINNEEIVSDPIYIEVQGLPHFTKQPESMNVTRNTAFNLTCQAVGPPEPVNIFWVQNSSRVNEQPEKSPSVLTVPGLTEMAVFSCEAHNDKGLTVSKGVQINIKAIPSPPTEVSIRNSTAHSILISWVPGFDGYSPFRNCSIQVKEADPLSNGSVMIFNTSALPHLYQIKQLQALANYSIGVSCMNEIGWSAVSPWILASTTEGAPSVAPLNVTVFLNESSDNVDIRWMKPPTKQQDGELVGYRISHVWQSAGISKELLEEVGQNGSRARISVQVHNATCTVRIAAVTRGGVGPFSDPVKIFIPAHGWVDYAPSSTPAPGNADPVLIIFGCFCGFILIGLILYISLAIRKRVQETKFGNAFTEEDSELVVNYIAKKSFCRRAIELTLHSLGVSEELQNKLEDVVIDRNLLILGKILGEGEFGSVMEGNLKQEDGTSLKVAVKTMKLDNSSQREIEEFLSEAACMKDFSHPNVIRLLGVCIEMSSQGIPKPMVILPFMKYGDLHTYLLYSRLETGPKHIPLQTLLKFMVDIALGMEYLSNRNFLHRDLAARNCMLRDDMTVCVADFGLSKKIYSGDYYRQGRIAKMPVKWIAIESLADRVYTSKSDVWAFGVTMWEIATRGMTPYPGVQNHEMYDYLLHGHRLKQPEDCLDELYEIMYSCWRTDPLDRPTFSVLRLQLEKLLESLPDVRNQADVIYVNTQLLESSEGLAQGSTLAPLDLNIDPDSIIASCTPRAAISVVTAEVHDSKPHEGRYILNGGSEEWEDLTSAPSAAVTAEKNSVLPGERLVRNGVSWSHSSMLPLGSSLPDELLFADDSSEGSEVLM", "conditions": "Mer(h), read-out: Inhibition rate", "in_short": "(§1)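 Off-target profiling: one compound assayed by a commercial provider over 380 recombinant human protein kinases at various concentrations.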"}, "[2]": {"target": "T2, 380 human recombinant protein kinases (Homo sapiens, UniProt O14578)", "T2 construct": "purchased Eurofins (Celle Lévescault)", "T2 sequence (O14578 whole entry)": "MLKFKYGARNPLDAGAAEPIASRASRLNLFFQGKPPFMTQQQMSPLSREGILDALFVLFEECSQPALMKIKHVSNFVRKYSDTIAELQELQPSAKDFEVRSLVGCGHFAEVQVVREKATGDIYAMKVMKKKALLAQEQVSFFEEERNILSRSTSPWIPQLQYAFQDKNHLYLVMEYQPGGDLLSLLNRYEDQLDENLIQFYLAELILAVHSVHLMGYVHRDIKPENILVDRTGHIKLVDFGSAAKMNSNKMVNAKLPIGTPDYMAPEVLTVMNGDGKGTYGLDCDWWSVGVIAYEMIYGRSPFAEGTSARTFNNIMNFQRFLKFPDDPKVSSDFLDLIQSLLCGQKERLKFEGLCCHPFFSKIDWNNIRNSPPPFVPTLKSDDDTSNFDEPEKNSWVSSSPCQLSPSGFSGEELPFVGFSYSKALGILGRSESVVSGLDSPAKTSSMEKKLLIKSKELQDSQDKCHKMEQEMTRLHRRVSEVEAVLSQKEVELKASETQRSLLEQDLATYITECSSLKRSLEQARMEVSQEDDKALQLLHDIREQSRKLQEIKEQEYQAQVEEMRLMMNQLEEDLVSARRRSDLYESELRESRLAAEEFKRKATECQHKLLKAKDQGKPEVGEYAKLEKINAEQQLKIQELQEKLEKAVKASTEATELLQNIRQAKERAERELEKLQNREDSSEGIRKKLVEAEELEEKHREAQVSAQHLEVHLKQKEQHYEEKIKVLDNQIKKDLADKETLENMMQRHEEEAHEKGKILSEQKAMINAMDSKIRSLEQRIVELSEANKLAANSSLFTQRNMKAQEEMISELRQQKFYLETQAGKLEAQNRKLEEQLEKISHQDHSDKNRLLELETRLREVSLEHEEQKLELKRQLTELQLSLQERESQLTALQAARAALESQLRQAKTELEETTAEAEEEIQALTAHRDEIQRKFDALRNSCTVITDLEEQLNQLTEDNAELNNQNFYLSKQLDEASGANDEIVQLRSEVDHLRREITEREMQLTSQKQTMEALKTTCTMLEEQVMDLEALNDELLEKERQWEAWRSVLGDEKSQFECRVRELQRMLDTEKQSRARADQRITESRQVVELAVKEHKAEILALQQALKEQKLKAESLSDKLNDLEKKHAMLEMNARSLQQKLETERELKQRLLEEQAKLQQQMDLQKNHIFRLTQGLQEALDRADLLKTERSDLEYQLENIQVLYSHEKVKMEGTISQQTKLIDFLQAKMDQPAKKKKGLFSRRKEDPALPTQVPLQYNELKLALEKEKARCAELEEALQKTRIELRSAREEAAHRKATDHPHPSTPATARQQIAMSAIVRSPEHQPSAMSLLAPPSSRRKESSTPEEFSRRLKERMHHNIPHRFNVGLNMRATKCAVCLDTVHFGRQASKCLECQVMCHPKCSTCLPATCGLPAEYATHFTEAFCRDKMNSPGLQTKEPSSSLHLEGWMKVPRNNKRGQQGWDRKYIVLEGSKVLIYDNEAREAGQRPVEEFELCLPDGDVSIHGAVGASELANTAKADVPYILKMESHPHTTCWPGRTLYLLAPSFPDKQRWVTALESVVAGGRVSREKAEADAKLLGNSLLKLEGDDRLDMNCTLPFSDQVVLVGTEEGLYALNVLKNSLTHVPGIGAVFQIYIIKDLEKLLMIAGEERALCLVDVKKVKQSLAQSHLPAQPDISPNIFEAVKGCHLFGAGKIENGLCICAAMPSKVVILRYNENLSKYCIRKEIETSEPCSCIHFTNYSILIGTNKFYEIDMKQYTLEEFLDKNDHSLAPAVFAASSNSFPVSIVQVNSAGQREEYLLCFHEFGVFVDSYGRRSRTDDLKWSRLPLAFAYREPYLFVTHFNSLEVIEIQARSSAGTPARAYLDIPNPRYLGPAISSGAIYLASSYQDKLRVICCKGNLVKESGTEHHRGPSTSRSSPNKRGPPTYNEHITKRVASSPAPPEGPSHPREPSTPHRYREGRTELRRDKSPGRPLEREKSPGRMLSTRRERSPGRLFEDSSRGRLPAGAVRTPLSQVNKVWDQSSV", "conditions": "CRIK(h), read-out: Inhibition rate", "in_short": "as §1"}, "[3]": {"target": "T3, 380 human recombinant protein kinases (Homo sapiens, UniProt O00329)", "T3 construct": "purchased Eurofins (Celle Lévescault)", "T3 sequence (O00329 1-1044)": "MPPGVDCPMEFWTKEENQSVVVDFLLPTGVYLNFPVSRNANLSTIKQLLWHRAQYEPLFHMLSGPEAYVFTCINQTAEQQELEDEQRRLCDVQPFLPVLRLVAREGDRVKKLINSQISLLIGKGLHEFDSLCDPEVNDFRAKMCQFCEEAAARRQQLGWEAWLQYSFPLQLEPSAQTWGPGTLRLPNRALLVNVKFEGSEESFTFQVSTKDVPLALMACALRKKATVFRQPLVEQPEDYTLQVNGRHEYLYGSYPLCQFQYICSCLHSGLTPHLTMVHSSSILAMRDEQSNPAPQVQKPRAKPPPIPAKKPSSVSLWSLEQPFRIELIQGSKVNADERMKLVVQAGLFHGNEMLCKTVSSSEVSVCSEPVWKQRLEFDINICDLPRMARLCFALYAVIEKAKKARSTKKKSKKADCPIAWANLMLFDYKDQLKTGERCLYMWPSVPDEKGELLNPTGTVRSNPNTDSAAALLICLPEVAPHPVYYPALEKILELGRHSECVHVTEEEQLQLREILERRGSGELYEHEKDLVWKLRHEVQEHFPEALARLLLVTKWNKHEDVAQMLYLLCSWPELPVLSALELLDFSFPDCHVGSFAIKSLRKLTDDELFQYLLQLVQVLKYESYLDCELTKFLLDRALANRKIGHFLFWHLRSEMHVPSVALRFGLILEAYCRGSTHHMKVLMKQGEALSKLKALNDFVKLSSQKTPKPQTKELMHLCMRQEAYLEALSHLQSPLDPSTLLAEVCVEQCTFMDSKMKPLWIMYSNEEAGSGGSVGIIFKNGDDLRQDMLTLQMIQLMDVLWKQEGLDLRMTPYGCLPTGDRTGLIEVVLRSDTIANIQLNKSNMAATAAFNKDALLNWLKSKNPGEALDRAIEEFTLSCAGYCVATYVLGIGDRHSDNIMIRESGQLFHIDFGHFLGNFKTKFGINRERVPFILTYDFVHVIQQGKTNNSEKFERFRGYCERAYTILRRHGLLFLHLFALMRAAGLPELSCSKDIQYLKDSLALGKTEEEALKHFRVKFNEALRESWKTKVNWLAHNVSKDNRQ", "conditions": "PI3 Kinase (p110δ/p85α)(h), read-out: Inhibition rate (%)", "in_short": "as §1"}, "[4]": {"target": "T4, 380 human recombinant protein kinases (Homo sapiens, UniProt O94768)", "T4 construct": "purchased Eurofins (Celle Lévescault)", "T4 sequence (O94768 1-372)": "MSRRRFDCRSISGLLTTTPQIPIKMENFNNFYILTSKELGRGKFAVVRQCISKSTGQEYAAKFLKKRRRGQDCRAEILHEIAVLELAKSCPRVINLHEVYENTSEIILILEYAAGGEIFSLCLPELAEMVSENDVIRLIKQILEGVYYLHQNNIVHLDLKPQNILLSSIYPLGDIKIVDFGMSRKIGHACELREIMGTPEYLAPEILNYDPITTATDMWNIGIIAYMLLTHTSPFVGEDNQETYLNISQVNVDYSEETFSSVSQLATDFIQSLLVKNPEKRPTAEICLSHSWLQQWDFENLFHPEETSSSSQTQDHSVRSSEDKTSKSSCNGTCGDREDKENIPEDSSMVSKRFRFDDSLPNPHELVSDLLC", "conditions": "DRAK2(h), read-out: Inhibition rate", "in_short": "as §1"}}, "data": [{"smiles": "C=CC(=O)Nc1cc(-c2cc(-c3cc4c([nH]3)CCNC4=O)ccn2)ccc1OC(F)(F)F", "note": "[compound 11]", "values": [{"measurement": "inhibition at 0.01 µM", "setting": "[1]; 10 nM", "result": -21, "unit": "%"}, {"measurement": "inhibition at 0.1 µM", "setting": "[1]; 100 nM", "result": 4, "unit": "%"}, {"measurement": "inhibition at 1 µM", "setting": "[1]; 1000 nM", "result": 28, "unit": "%"}, {"measurement": "inhibition at 0.01 µM", "setting": "[2]; 10 nM", "result": -8, "unit": "%"}, {"measurement": "inhibition at 0.1 µM", "setting": "[2]; 100 nM", "result": 6, "unit": "%"}, {"measurement": "inhibition at 1 µM", "setting": "[2]; 1000 nM", "result": 29, "unit": "%"}, {"measurement": "inhibition at 0.01 µM", "setting": "[3]; 10 nM", "result": -3, "unit": "%"}, {"measurement": "inhibition at 0.1 µM", "setting": "[3]; 100 nM", "result": -1, "unit": "%"}, {"measurement": "inhibition at 1 µM", "setting": "[3]; 1000 nM", "result": 2, "unit": "%"}, {"measurement": "inhibition at 0.01 µM", "setting": "[4]; 10 nM", "result": 28, "unit": "%"}, {"measurement": "inhibition at 0.1 µM", "setting": "[4]; 100 nM", "result": 80, "unit": "%"}, {"measurement": "inhibition at 1 µM", "setting": "[4]; 1000 nM", "result": 93, "unit": "%"}]}]}
